From patent US20250277012A1 (Protagonist Therapeutics, Inc., priority 2021, published 2025)
Positions of bridges follow the written chain, without caps; N, C: chain ends. Non-standard residues stand in square brackets, D forms with d. Residues, ends and D or L forms follow the SMILES beside them. Groups on a side chain read outwards from the residue. *: point of attachment. CH3O(CH2CH2O)11CH2CH2CO = COCCOCCOCCOCCOCCOCCOCCOCCOCCOCCOCCOCCC(=O)*; Nva(5-morpholino) = N[C@@H](CCCN1CCOCC1)C(=O)O; C18 diacid = O=C(O)CCCCCCCCCCCCCCCCC(=O)*; Dip = N[C@H](C(=O)O)C(c1ccccc1)c1ccccc1; 1Nal = N[C@@H](Cc1cccc2ccccc12)C(=O)O; NMeY = CN[C@@H](Cc1ccc(O)cc1)C(=O)O; dNMeY = CN[C@H](Cc1ccc(O)cc1)C(=O)O; NMeF = CN[C@@H](Cc1ccccc1)C(=O)O; NMeI = CC[C@H](C)[C@H](NC)C(=O)O; β3hF = N[C@H](CC(=O)O)Cc1ccccc1; NMeK = CN[C@@H](CCCCN)C(=O)O; Isovaleryl = CC(C)CC(=O)*; NMeS = CN[C@@H](CO)C(=O)O; hCys = N[C@@H](CCS)C(=O)O; Dab = NCC[C@H](N)C(=O)O; Dap = NC[C@H](N)C(=O)O; AEEA = NCCOCCOCC(=O)O

Experiments:
ferroportin [1] = target: T1, ferroportin (Homo sapiens, UniProt Q9NP59); assay: T47D cell-based ferroportin internalization assay in presence of mouse serum albumin (MSA); design: a human breast carcinoma adherent cell line which endogenously expresses ferroportin; host or cells: T47D; conditions: T47D internalization assay in presence of mouse serum albumin (MSA); Table 6E
T1 sequence (Q9NP59 1-571): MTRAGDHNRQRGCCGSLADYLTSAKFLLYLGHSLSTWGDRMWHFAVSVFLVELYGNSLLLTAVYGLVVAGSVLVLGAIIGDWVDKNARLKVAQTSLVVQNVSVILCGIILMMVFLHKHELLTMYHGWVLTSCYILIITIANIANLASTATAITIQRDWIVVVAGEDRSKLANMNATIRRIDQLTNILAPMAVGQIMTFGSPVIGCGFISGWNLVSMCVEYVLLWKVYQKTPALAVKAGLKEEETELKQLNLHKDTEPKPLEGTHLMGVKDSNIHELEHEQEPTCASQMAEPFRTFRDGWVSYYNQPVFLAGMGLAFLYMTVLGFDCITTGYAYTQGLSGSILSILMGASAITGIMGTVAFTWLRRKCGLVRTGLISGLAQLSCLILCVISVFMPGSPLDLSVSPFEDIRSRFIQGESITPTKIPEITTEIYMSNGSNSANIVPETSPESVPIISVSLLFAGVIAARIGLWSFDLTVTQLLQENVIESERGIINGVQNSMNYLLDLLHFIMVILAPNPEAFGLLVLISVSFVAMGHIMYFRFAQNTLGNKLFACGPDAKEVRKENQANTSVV
Procedure, shortened: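 Peptide potency for inducing ferroportin internalization was measured in T47D cells in the presence of serum albumin. Cells grown in RPMI with fetal bovine serum were seeded in 96-well plates at 80-100 k cells per well in 100 ul and rested overnight. Dilution series of test peptides were preincubated 30 min at room temperature, then added to the cells after the medium was aspirated.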

ferroportin [2] = target: T1, ferroportin; assay: FPN activity assay: ferroportin-GFP internalization/degradation in HEK293 cells; format: cell-based; design: expressed in transfected cells; conditions: ferroportin-GFP internalization/degradation, HEK293 cells; Table 6E; read-out: FPN IC50
Protocol: Following internalization, the ferroporin protein is degraded.
A retro inverse peptide is a peptide with a reversed sequence in all D amino acids. An example is that Hy-Glu-Thr-His-NH2 becomes Hy-DHis-DThr-DGlu-NH2. The EC50 of these reference compounds for ferroportin internalization/degradation was determined according to the FPN activity assay described above. These peptides served as control standards.

| Compound | IC50 (ferroportin [1]) [nM] | DC50 (ferroportin [2]) [nM] |
| --- | --- | --- |
| COCCOCCOCCOCCOCCOCCOCCOCCOCCOCCOCCOCCC(=O)NCCCC[C@@H](NC(=O)C[C@H](Cc1ccccc1)NC(=O)[C@H](CCCCNC(=O)COCCOCCNC(=O)COCCOCCNC(=O)[C@H](CN)NC(=O)CCCCCCCCCCCCCCCCC(=O)O)N(C)C(=O)[C@@H]1CSSC[C@H](NC(=O)[C@@H]2CCCN2C(=O)[C@@H](NC(=O)[C@H](Cc2c[nH]cn2)NC(=O)[C@@H](NC(=O)[C@H](CCC(=O)OC)NC(=O)CC(C)C)[C@@H](C)O)C(c2ccccc2)c2ccccc2)C(=O)N1)C(N)=O [compound 254] (Isovaleryl-E(OMe)TH[Dip]PCC[NMeK]([AEEA-AEEA-Dap-C18 diacid])[β3hF][dK](CH3O(CH2CH2O)11CH2CH2CO)-NH2; disulfide 6-7) | 10 to 100 | 10 to 100 |
| COCCOCCOCCOCCOCCOCCOCCOCCOCCOCCOCCOCCC(=O)NCCCC[C@@H](NC(=O)C[C@H](Cc1ccccc1)NC(=O)[C@H](CCCCNC(=O)COCCOCCNC(=O)COCCOCCNC(=O)[C@H](CN)NC(=O)CCCCCCCCCCCCCCCCC(=O)O)N(C)C(=O)[C@@H]1CSSC[C@H](NC(=O)[C@@H]2CCCN2C(=O)[C@@H](NC(=O)[C@H](Cc2c[nH]cn2)NC(=O)[C@@H](NC(=O)[C@H](CCC(=O)O)NC(=O)CC(C)C)[C@@H](C)O)C(c2ccccc2)c2ccccc2)C(=O)N1)C(N)=O [compound 255] (Isovaleryl-ETH[Dip]PCC[NMeK]([AEEA-AEEA-Dap-C18 diacid])[β3hF][dK](CH3O(CH2CH2O)11CH2CH2CO)-NH2; disulfide 6-7) | 10 to 100 | 10 to 100 |
| COC(=O)CC[C@H](NC(=O)CC(C)C)C(=O)N[C@H](C(=O)N[C@@H](Cc1c[nH]cn1)C(=O)N[C@H](C(=O)N1CCC[C@H]1C(=O)N[C@H]1CSSC[C@@H](C(=O)N(C)[C@@H](CCCCNC(=O)COCCOCCNC(=O)COCCOCCNC(=O)[C@H](CN)NC(=O)CCCCCCCCCCCCCCCCC(=O)O)C(=O)N[C@H](CC(N)=O)Cc2ccccc2)NC1=O)C(c1ccccc1)c1ccccc1)[C@@H](C)O [compound 256] (Isovaleryl-E(OMe)TH[Dip]PCC[NMeK]([AEEA-AEEA-Dap-C18 diacid])[β3hF]-NH2; disulfide 6-7) | 10 to 100 | 1 to 10 |
| CC(C)CC(=O)N[C@@H](CCC(=O)O)C(=O)N[C@H](C(=O)N[C@@H](Cc1c[nH]cn1)C(=O)N[C@H](C(=O)N1CCC[C@H]1C(=O)N[C@H]1CSSC[C@@H](C(=O)N(C)[C@@H](CCCCNC(=O)COCCOCCNC(=O)COCCOCCNC(=O)[C@H](CN)NC(=O)CCCCCCCCCCCCCCCCC(=O)O)C(=O)N[C@H](CC(=O)N[C@H](CCCCN)C(=O)N(C)[C@H](Cc2ccc(O)cc2)C(N)=O)Cc2ccccc2)NC1=O)C(c1ccccc1)c1ccccc1)[C@@H](C)O [compound 257] (Isovaleryl-ETH[Dip]PCC[NMeK]([AEEA-AEEA-Dap-C18 diacid])[β3hF][dK][dNMeY]-NH2; disulfide 6-7) | 10 to 100 | 10 to 100 |
| CC(C)CC(=O)N[C@@H](CCC(=O)O)C(=O)N[C@H](C(=O)N[C@@H](Cc1c[nH]cn1)C(=O)N[C@H](C(=O)N1CCC[C@H]1C(=O)N[C@H]1CSSC[C@@H](C(=O)N(C)[C@@H](CCCCNC(=O)COCCOCCNC(=O)COCCOCCNC(=O)[C@H](CN)NC(=O)CCCCCCCCCCCCCCCCC(=O)O)C(=O)N[C@H](CC(=O)N[C@H](CCCCN)C(=O)N[C@@H](Cc2cccc3ccccc23)C(N)=O)Cc2ccccc2)NC1=O)C(c1ccccc1)c1ccccc1)[C@@H](C)O [compound 258] (Isovaleryl-ETH[Dip]PCC[NMeK]([AEEA-AEEA-Dap-C18 diacid])[β3hF][dK][1Nal]-NH2; disulfide 6-7) | 10 to 100 | 10 to 100 |
| CC(C)CC(=O)N[C@@H](CCC(=O)O)C(=O)N[C@H](C(=O)N[C@@H](Cc1c[nH]cn1)C(=O)N[C@H](C(=O)N1CCC[C@H]1C(=O)N[C@H]1CSSC[C@@H](C(=O)N(C)[C@@H](CCCCNC(=O)COCCOCCNC(=O)COCCOCCNC(=O)[C@H](CN)NC(=O)CCCCCCCCCCCCCCCCC(=O)O)C(=O)N[C@H](CC(=O)N[C@H](CCCCN)C(=O)N(C)[C@@H](Cc2ccc(O)cc2)C(N)=O)Cc2ccccc2)NC1=O)C(c1ccccc1)c1ccccc1)[C@@H](C)O [compound 259] (Isovaleryl-ETH[Dip]PCC[NMeK]([AEEA-AEEA-Dap-C18 diacid])[β3hF][dK][NMeY]-NH2; disulfide 6-7) | 10 to 100 | 10 to 100 |
| CC(C)CC(=O)N[C@@H](CCC(=O)O)C(=O)N[C@H](C(=O)N[C@@H](Cc1c[nH]cn1)C(=O)N[C@H](C(=O)N1CCC[C@H]1C(=O)N[C@H]1CSSC[C@@H](C(=O)N(C)[C@@H](CCCCNC(=O)COCCOCCNC(=O)COCCOCCNC(=O)[C@H](CN)NC(=O)CCCCCCCCCCCCCCCCC(=O)O)C(=O)N[C@H](CC(=O)N[C@H](CCCCN)C(=O)N(C)[C@@H](CO)C(N)=O)Cc2ccccc2)NC1=O)C(c1ccccc1)c1ccccc1)[C@@H](C)O [compound 260] (Isovaleryl-ETH[Dip]PCC[NMeK]([AEEA-AEEA-Dap-C18 diacid])[β3hF][dK][NMeS]-NH2; disulfide 6-7) | 10 to 100 | 10 to 100 |
| CC[C@H](C)[C@@H](C(N)=O)N(C)C(=O)[C@@H](CCCCN)NC(=O)C[C@H](Cc1ccccc1)NC(=O)[C@H](CCCCNC(=O)COCCOCCNC(=O)COCCOCCNC(=O)[C@H](CN)NC(=O)CCCCCCCCCCCCCCCCC(=O)O)N(C)C(=O)[C@@H]1CSSC[C@H](NC(=O)[C@@H]2CCCN2C(=O)[C@@H](NC(=O)[C@H](Cc2c[nH]cn2)NC(=O)[C@@H](NC(=O)[C@H](CCC(=O)O)NC(=O)CC(C)C)[C@@H](C)O)C(c2ccccc2)c2ccccc2)C(=O)N1 [compound 262] (Isovaleryl-ETH[Dip]PCC[NMeK]([AEEA-AEEA-Dap-C18 diacid])[β3hF][dK][NMeI]-NH2; disulfide 6-7) | 10 to 100 | 10 to 100 |
| CC(C)CC(=O)N[C@@H](CCC(=O)O)C(=O)N[C@H](C(=O)N[C@@H](Cc1c[nH]cn1)C(=O)N[C@H](C(=O)N1CCC[C@H]1C(=O)N[C@H]1CSSC[C@@H](C(=O)N(C)[C@@H](CCCCNC(=O)COCCOCCNC(=O)COCCOCCNC(=O)[C@H](CN)NC(=O)CCCCCCCCCCCCCCCCC(=O)O)C(=O)N[C@H](CC(=O)N[C@H](CCCCN)C(=O)N(C)[C@@H](Cc2ccccc2)C(N)=O)Cc2ccccc2)NC1=O)C(c1ccccc1)c1ccccc1)[C@@H](C)O [compound 263] (Isovaleryl-ETH[Dip]PCC[NMeK]([AEEA-AEEA-Dap-C18 diacid])[β3hF][dK][NMeF]-NH2; disulfide 6-7) | 10 to 100 | 10 to 100 |
| CC(C)CC(=O)N[C@@H](CCC(=O)O)C(=O)N[C@H](C(=O)N[C@@H](Cc1c[nH]cn1)C(=O)N[C@H](C(=O)N1CCC[C@H]1C(=O)N[C@H]1CSSC[C@@H](C(=O)N(C)[C@@H](CCCCNC(=O)COCCOCCNC(=O)COCCOCCNC(=O)[C@H](CN)NC(=O)CCCCCCCCCCCCCCCCC(=O)O)C(=O)N[C@H](CC(=O)N[C@@H](CCN)C(N)=O)Cc2ccccc2)NC1=O)C(c1ccccc1)c1ccccc1)[C@@H](C)O [compound 264] (Isovaleryl-ETH[Dip]PCC[NMeK]([AEEA-AEEA-Dap-C18 diacid])[β3hF][Dab]-NH2; disulfide 6-7) | 10 to 100 | 10 to 100 |
| CC(C)CC(=O)N[C@@H](CCC(=O)O)C(=O)N[C@H](C(=O)N[C@@H](Cc1c[nH]cn1)C(=O)N[C@H](C(=O)N1CCC[C@H]1C(=O)N[C@H]1CSSC[C@@H](C(=O)N(C)[C@@H](CCCCNC(=O)COCCOCCNC(=O)COCCOCCNC(=O)[C@H](CN)NC(=O)CCCCCCCCCCCCCCCCC(=O)O)C(=O)N[C@H](CC(=O)N[C@@H](CCCN2CCOCC2)C(N)=O)Cc2ccccc2)NC1=O)C(c1ccccc1)c1ccccc1)[C@@H](C)O [compound 265] (Isovaleryl-ETH[Dip]PCC[NMeK]([AEEA-AEEA-Dap-C18 diacid])[β3hF][Nva(5-morpholino)]-NH2; disulfide 6-7) | 10 to 100 | 10 to 100 |
| CC(C)CC(=O)N[C@@H](CCC(=O)O)C(=O)N[C@H](C(=O)N[C@@H](Cc1c[nH]cn1)C(=O)N[C@H](C(=O)N1CCC[C@H]1C(=O)N[C@H]1CCSSCC[C@@H](C(=O)N[C@@H](CCCCNC(=O)COCCOCCNC(=O)COCCOCCNC(=O)[C@H](CN)NC(=O)CCCCCCCCCCCCCCCCC(=O)O)C(=O)N[C@H](CC(=O)N[C@H](CCCCN)C(N)=O)Cc2ccccc2)NC1=O)C(c1ccccc1)c1ccccc1)[C@@H](C)O [compound 268] (Isovaleryl-ETH[Dip]P[hCys][hCys]K([AEEA-AEEA-Dap-C18 diacid])[β3hF][dK]-NH2; disulfide 6-7) | 10 to 100 | 10 to 100 |
